Measured values published in US10392368B2, “Pyrazolo and triazolo bicyclic compounds as JAK kinase inhibitors” (THERAVANCE BIOPHARMA R&D IP, LLC, priority 2017, dated 2019).
Read-outs that look alike come from different tables or passages of the source.

Experiments:
[1] = target: T1, JAK1 (Homo sapiens, UniProt P23458); assay: Biochemical JAK1 kinase assay (LanthaScreen); details: for Ki: read-out: JAK 1 (pKi) (converted)
T1 construct: GST; purchased Life Technologies
Description: (§1) A panel of four LanthaScreen JAK biochemical assays (JAK1, 2, 3 and Tyk2) were carried in a common kinase reaction buffer (50 mM HEPES, pH 7.5, 0.01% Brij-35, 10 mM MgCl2, and 1 mM EGTA). Recombinant GST-tagged JAK enzymes and a GFP-tagged STAT1 peptide substrate were obtained from Life Technologies.
(§2) Serially or discretely diluted compounds were pre-incubated with each of the four JAK enzymes and the substrate in white 384-well microplates (Corning) at ambient temperature for 1 h. ATP was subsequently added to initiate the kinase reactions in 10 μL total volume, with 1% DMSO. […] Kinase reactions were allowed to proceed for 1 hour at ambient temperature before a 10 μL preparation of EDTA (10 mM final concentration) and Tb-anti-pSTAT1 (pTyr701) antibody (Life Technologies, 2 nM final concentration) in TR-FRET dilution buffer (Life Technologies) was added. The plates were allowed to incubate at ambient temperature for 1 h before being read on the EnVision reader (Perkin Elmer). Emission ratio signals (520 nm/495 nm) were recorded and utilized to calculate the percent inhibition values based on DMSO and background controls.
(§3) For dose-response analysis, percent inhibition data were plotted vs. compound concentrations, and IC50 values were determined from a 4-parameter robust fit model with the Prism software (GraphPad Software). Results were expressed as pIC50 (negative logarithm of IC50) and subsequently converted to pKi (negative logarithm of dissociation constant, Ki) using the Cheng-Prusoff equation.

[2] = system: IL-2 stimulated pSTAT5 in Tall-1 T cells; assay: Cellular JAK3 potency assay: inhibition of IL-2 stimulated pSTAT5 in Tall-1 T cells; type: cell-based, human; details: for IC50: Homo sapiens, read-out: Tall-1 (pIC50) (converted)
Description: The potency of test compounds for inhibition of interleukin-2 (IL-2) stimulated STAT5 phosphorylation was measured in the Tall-1 human T cell line (DSMZ) using AlphaLisa. Because IL-2 signals through JAK3, this assay provides a measure of JAK3 cellular potency.
Compounds were serially diluted in DMSO and dispensed acoustically to empty wells. Assay media (phenol red-free DMEM (Life Technologies) supplemented with 10% FBS (ATCC)) was dispensed (4 μL/well) and plates shaken at 900 rpm for 10 mins. Cells were seeded at 45,000 cells/well in assay media (4 μL/well), and incubated at 37° C., 5% CO2 for 1 hour, followed by the addition of IL-2 (R&D Systems; final concentration 300 ng/ml) in pre-warmed assay media (4 μL) for 30 minutes. After cytokine stimulation, cells were lysed with 6 ul of 3× AlphaLisa Lysis Buffer (PerkinElmer) containing 1× PhosStop and Complete tablets (Roche). The lysate was shaken at 900 rpm for 10 minutes at room temperature (RT). Phosphorylated STAT5 was measured via the pSTAT5 AlphaLisa kit (PerkinElmer). Freshly prepared acceptor bead mixture was dispensed onto lysate (5 μL) under green filtered <100 lux light. Plates were shaken at 900 rpm for 2 mins, briefly spun down, and incubated for 2 hrs at RT in the dark. Donor beads were dispensed (5 μL) under green filtered <100 lux light. Plates were shaken at 900 rpm for 2 minutes, briefly spun down, and incubated overnight at RT in the dark.
To determine the inhibitory potency of test compounds in response to IL-2, the average emission intensity of beads bound to pSTAT5 was measured in a human T cell line. IC50 values were determined from analysis of the inhibition curves of signal intensity versus compound concentration. Data are expressed as pIC50 (negative decadic logarithm IC50) values (mean±standard deviation).

[3] = target: T2, JAK3 (Homo sapiens, UniProt P52333); assay: Biochemical JAK3 kinase assay (LanthaScreen); design: GST; purchased Life Technologies; details: for Ki: read-out: JAK 3 (pKi) (converted)
T2 sequence (P52333 1-1124): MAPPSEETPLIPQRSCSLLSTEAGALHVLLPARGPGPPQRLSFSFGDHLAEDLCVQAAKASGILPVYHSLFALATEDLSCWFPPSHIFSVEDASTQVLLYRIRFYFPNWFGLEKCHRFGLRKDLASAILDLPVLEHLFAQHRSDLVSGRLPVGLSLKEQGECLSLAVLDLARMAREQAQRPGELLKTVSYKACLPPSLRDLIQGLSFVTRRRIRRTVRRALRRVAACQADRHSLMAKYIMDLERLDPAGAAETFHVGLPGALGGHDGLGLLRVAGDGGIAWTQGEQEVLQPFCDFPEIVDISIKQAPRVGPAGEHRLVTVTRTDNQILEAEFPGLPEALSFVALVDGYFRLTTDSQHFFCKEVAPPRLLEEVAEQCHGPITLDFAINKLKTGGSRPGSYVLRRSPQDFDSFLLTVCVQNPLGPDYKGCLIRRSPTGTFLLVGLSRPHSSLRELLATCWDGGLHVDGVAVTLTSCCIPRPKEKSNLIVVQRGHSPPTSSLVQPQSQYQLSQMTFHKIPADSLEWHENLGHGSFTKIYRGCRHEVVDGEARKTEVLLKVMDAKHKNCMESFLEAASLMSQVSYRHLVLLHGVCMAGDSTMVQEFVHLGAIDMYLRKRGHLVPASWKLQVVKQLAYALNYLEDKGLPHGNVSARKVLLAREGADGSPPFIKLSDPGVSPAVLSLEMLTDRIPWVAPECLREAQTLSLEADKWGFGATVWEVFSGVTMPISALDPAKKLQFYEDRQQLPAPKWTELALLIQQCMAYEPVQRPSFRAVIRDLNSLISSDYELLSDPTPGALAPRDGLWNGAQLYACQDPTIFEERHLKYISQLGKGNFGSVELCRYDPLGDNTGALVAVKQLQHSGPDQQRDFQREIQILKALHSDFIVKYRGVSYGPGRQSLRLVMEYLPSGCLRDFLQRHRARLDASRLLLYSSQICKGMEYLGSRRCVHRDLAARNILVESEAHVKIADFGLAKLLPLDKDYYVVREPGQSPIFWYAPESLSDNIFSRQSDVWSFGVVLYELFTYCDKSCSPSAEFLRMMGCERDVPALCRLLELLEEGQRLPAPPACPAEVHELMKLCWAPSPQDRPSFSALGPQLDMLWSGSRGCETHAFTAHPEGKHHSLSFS
Description: as §1, §2, §3

[4] = TALL-1, IL-2 stimulated pSTAT5, Tall-1 T cells
[5] = selectivity JAK3 over JAK1, difference of pKi
[6] = TALL-1, IL-2 stimulated pSTAT5 in Tall-1 T cells
[7] = selectivity: difference of pKi JAK3 and pKi JAK1
[8] = IL-2 stimulated pSTAT5 in Tall-1 T cells
[9] = IL-2 stimulated pSTAT5, Tall-1 T cells

T1 sequence (P23458 whole entry): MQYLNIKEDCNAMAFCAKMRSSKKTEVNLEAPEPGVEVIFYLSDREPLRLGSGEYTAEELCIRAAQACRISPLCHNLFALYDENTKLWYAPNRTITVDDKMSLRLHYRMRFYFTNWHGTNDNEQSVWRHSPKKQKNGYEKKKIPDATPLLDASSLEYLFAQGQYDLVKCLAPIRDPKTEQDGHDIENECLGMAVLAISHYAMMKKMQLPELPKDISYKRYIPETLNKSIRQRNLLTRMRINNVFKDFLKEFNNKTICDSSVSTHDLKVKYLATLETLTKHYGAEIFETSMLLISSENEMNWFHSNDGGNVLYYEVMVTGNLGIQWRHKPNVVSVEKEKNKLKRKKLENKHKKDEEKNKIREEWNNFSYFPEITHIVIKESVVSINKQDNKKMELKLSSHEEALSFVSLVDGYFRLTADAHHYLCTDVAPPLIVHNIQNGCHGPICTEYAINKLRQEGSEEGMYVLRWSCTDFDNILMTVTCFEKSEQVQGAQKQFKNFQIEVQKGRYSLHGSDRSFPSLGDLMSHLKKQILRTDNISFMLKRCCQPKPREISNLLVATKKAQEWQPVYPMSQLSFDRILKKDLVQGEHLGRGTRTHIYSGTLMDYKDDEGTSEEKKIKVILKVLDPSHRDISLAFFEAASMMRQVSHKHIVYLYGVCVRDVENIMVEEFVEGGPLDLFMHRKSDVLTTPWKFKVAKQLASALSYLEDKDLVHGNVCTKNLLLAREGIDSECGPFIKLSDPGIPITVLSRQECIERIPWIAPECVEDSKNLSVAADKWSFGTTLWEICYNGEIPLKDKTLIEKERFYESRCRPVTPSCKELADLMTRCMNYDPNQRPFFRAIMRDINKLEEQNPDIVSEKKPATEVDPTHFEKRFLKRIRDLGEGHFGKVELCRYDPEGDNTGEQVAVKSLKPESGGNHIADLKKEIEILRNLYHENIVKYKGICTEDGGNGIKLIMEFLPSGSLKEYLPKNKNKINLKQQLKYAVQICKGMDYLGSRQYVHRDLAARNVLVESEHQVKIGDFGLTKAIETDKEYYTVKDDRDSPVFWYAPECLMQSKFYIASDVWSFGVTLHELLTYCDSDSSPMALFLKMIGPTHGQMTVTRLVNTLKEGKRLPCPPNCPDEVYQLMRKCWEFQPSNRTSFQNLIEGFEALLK

| Structure (SMILES) | Ki [1] | IC50 [2, 4] | Ki [3] | JAK3 (pKi)-JAK1 (pKi) [3, 5] | IC50 [2, 6] | JAK3 (pKi)-JAK1 (pKi) [3, 7] | JAK 1 (pKi) [1] | Tall-1 (pIC50) [2, 8] | JAK 3 (pKi) [3] | Tall-1 (pIC50) [2, 9] |
| --- | --- | --- | --- | --- | --- | --- | --- | --- | --- | --- |
| CN(C)C/C=C/C(=O)N1CC(COc2cc(-c3c(F)cc(O)cc3F)cc3[nH]ncc23)C1 [Compound 18-2] | 0.01 to 0.1 µM | < 0.0316 µM | < 0.0001 µM | C (a value of 1.8 to 2.3) | – | – | – | – | – | – |
| C=CC(=O)N1CC[C@@H](Nc2cc(-c3ccc(O)cc3)cc3[nH]ncc23)C1 [Compound 12-18] | 0.01 to 0.1 µM | 0.0316 to 0.2 µM | < 0.0001 µM | B (a value of 2.3 to 3) | – | – | – | – | – | – |
| C=CC(=O)N1CC[C@H](Oc2cc(-c3ccc(O)c(F)c3)cc3[nH]nc(C)c23)C1 [Compound 1-23] | 0.01 to 0.1 µM | – | 0.0001 to 0.001 µM | – | < 0.0316 µM | B (a value of 2.3 to 3) | – | – | – | – |
| C=CC(=O)N1CC(COc2cc(-c3ccc(O)cc3)cc3[nH]nc(N(C)C)c23)C1 [Compound 18-11] | > 0.1 µM | 0.2 to 1 µM | 0.0001 to 0.001 µM | A (a value of 3 or above) | – | – | – | – | – | – |
| CN(C)C/C=C/C(=O)N1CC[C@H](Oc2cc(-c3ccc(O)cc3)cc3[nH]nc(Cl)c23)C1 [Compound 1-48] | – | – | – | – | – | B (a value of 2.3 to 3) | E (a pKi value of 7 or below (Ki of 100 nM or above)) | B (a pIC50 value between 6.7 (included) and 7.5 (IC50 between 200 nM and 32 nM)) | C (a pKi value between 8 and 9 (Ki between 10 nM and 1 nM)) | – |
| C=CC(=O)N1CCC(Nc2cc(-c3ccc(O)cc3)cc3[nH]ncc23)C(F)(F)C1 (centres unmarked) [Compound 7-6] | – | – | – | B (a value of 2.3 to 3) | – | – | D (a pKi value between 7 and 8 (Ki between 100 nM and 10 nM)) | – | A (a pKi value≥10 (Ki≤0.1 nM)) | A (a pIC50 value≥7.5 (IC50≤32 nM)) |
| C=CC(=O)N1CC2(CCC2Oc2nc(-c3ccc(O)c(F)c3)nc3[nH]ncc23)C1 (centres unmarked) [Compound 13-18] | – | – | – | A (a value of 3 or above) | – | – | E (a pKi value of 7 or below (Ki of 100 nM or above)) | – | B (a pKi value between 9 and 10 (Ki between 1 nM and 0.1 nM)) | B (a pIC50 value between 6.7 (included) and 7.5 (IC50 between 200 nM and 32 nM)) |
| O=C(/C=C/CN1CCCC1)N1CC(COc2cc(-c3ccc(O)cc3)cc3[nH]ncc23)C1 [Compound 3-124] | > 0.1 µM | – | 0.0001 to 0.001 µM | – | 0.0316 to 0.2 µM | A (a value of 3 or above) | – | – | – | – |
| C=CC(=O)N1CCC(Oc2nc(-c3ccc(O)c(Cl)c3)nc3[nH]ncc23)CC1 [Compound 6-22] | > 0.1 µM | 0.2 to 1 µM | 0.0001 to 0.001 µM | A (a value of 3 or above) | – | – | – | – | – | – |
| CN(C)C/C=C/C(=O)N1CC[C@H](Oc2nc(-c3ccc(O)c(F)c3)cc3[nH]ncc23)C1 [Compound 1-28] | > 0.1 µM | – | 0.0001 to 0.001 µM | – | 0.2 to 1 µM | B (a value of 2.3 to 3) | – | – | – | – |
| C=CC(=O)N1CCC(COc2nc(-c3ccc(O)c(F)c3)cc3[nH]ncc23)CC1 [Compound 14-8] | – | – | – | B (a value of 2.3 to 3) | – | – | D (a pKi value between 7 and 8 (Ki between 100 nM and 10 nM)) | – | A (a pKi value≥10 (Ki≤0.1 nM)) | A (a pIC50 value≥7.5 (IC50≤32 nM)) |
| C=CC(=O)N1CC(C)(COc2cc(-c3ccc(O)c(F)c3)cc3[nH]ncc23)C1 [Compound 3-12] | > 0.1 µM | – | 0.0001 to 0.001 µM | – | 0.0316 to 0.2 µM | B (a value of 2.3 to 3) | – | – | – | – |
| C=CC(=O)N1CC(F)(COc2nc(-c3ccc(O)cc3)cc3[nH]ncc23)C1 [Compound 3-90] | 0.01 to 0.1 µM | – | < 0.0001 µM | – | < 0.0316 µM | B (a value of 2.3 to 3) | – | – | – | – |
| C=CC(=O)N1CC(N(C)c2cc(-c3ccc(O)cc3)cc3[nH]ncc23)C1 [Compound 5-9] | – | – | – | – | – | A (a value of 3 or above) | E (a pKi value of 7 or below (Ki of 100 nM or above)) | C (a pIC50 value between 6 and 6.7 (IC50 between 1 μM and 200 nM)) | B (a pKi value between 9 and 10 (Ki between 1 nM and 0.1 nM)) | – |
| CN(C)C/C=C/C(=O)N1CC[C@H](COc2cc(-c3ccc(O)c(F)c3)cc3[nH]ncc23)C1 [Compound 2-4] | – | – | – | – | – | B (a value of 2.3 to 3) | E (a pKi value of 7 or below (Ki of 100 nM or above)) | C (a pIC50 value between 6 and 6.7 (IC50 between 1 μM and 200 nM)) | B (a pKi value between 9 and 10 (Ki between 1 nM and 0.1 nM)) | – |
| CN(C)C/C=C/C(=O)N1CCC(C)(Oc2cc(-c3ccc(O)cc3)cc3[nH]ncc23)CC1 [Compound 6-9] | – | 0.0316 to 0.2 µM | – | A (a value of 3 or above) | – | – | – | – | – | – |
